{
  "source": "ChEMBL document CHEMBL6115010",
  "about": "“Targeting glioma with heteroaromatic alkaloids: A review of potential therapeutics” (Bioorg Med Chem, 2025)",
  "key": {"M059J": {"test_system": "M059J", "test": "Cytotoxicity against human M059J cells assessed as reduction in cell viability incubated for 72 hrs by MTT assay", "type": "functional, cell-based"}, "[1]": {"test": "Cytotoxicity against human M059K cells assessed as reduction in cell viability incubated for 72 hrs by MTT assay", "type": "functional, cell-based"}, "[2]": {"test": "Cytotoxicity against rat 9L/ACNU cells assessed as reduction in cell viability incubated for 24 hrs by tryphan-blue dye based assay", "type": "functional"}, "9L": {"test_system": "9L", "test": "Cytotoxicity against rat 9L cells assessed as reduction in cell viability incubated for 24 hrs by tryphan-blue dye based assay", "type": "functional"}, "ADR5000 cell line": {"test_system": "ADR5000 cell line", "test": "Cytotoxicity against human CEM/ADR5000 cells assessed as reduction in cell viability incubated for 72 hrs by resazurin dye based analysis", "type": "functional", "settings": "ADR5000, 72 h"}, "CCRF-CEM": {"test_system": "CCRF-CEM", "test": "Cytotoxicity against human CCRF-CEM cells assessed as reduction in cell viability incubated for 72 hrs by resazurin dye based analysis", "type": "functional"}, "[3]": {"test": "Cytotoxicity against human U-87 MG cells harboring EGFR mutation assessed as reduction in cell viability incubated for 72 hrs by resazurin dye based assay", "type": "functional, U-87MG ATCC"}, "[4]": {"test": "Cytotoxicity against human GBM cells harboring EGFR mutation assessed as reduction in cell viability incubated for 72 hrs by resazurin dye based assay", "type": "functional"}, "C6": {"test_system": "C6", "test": "Antitumor activity against rat C6 cells implanted in Wistar rat assessed as increase in life span at 250 mg/kg relative to control", "type": "functional"}, "[5]": {"test": "Antitumor activity against rat C6/ACNUcells implanted in Wistar rat assessed as increase in life span at 250 mg/kg relative to control", "type": "functional, C6/ACNU"}, "CAKI-1": {"test_system": "CAKI-1", "test": "Antitumor activity against human CAKI-1 cells xenografted in BALB/c athymic nude mouse assessed as inhibition of tumor growth at 5 mg/kg, po administered 5 times per week and measured for 3 times per week for 42 days relative to control", "type": "functional", "settings": "CAKI-1, 1008 h, time 42 day, read-out: TGI"}, "U-251 [6]": {"test_system": "U-251", "test": "Cytotoxicity against human U-251MG cells assessed as reduction in cell growth", "type": "functional, cell-based"}, "U-87 MG [7]": {"test_system": "U-87 MG", "test": "Antitumor activity against human U-87 MG cells xenografted in BALB/c nude mouse assessed as reduction in tumor growth at 5 mg/kg, iv administered once daily for 16 days relative to control", "type": "functional, U-87MG ATCC", "set-up": "scale not given: the % may be the effect or the level left", "settings": "time 16 day"}, "U-251 [8]": {"test_system": "U-251", "test": "Cytotoxicity against human U-251MG cells assessed as reduction in cell growth incubated for 72 hrs by MTT assay", "type": "functional, cell-based", "settings": "U-251, 72 h"}, "U-87 MG [9]": {"test_system": "U-87 MG", "test": "Antiproliferative activity against human U-87 MG cells assessed as reduction in cell viability incubated for 72 hrs by WST-8 reagent based assay", "type": "functional, U-87MG ATCC"}, "T98G": {"test_system": "T98G", "test": "Antiproliferative activity against human T98G cells assessed as reduction in cell viability incubated for 72 hrs by WST-8 reagent based assay", "type": "functional"}, "SH-SY5Y": {"test_system": "SH-SY5Y", "test": "Cytotoxicity against human SH-SY5Y cells measured for 48 hrs by SRB assay", "type": "functional, cell-based"}, "U-251 [10]": {"test_system": "U-251", "test": "Cytotoxicity against human U-251MG cells assessed as reduction in cell growth measured for 48 hrs by MTT assay", "type": "functional, cell-based", "settings": "U-251, 48 h"}, "U-87 MG [11]": {"test_system": "U-87 MG", "test": "Cytotoxicity against human U-87 MG cells assessed as reduction in cell growth measured for 48 hrs by MTT assay", "type": "functional, cell-based, U-87MG ATCC"}, "U-251 [12]": {"test_system": "U-251", "test": "Antitumor activity against human U-251MG cells xenografted in BALB/c nude mouse assessed as reduction in tumor growth at 4 mg/kg, ip administered once daily and measured after 28 days relative to control", "type": "functional", "settings": "U-251, 672 h, time 28 day, read-out: TGI"}, "U-251 [13]": {"test_system": "U-251", "test": "Antitumor activity against human U-251MG cells xenografted in BALB/c nude mouse assessed as reduction in tumor growth at 8 mg/kg, ip administered once daily and measured after 28 days relative to control", "type": "functional", "settings": "U-251, 672 h, time 28 day, read-out: TGI"}, "[14]": {"test": "Cytotoxicity against human U-343MG cells", "type": "functional, cell-based"}, "[15]": {"test": "Induction of apoptosis in human U373 MG cells at 1 uM relative to control", "type": "functional, U-373MG ATCC"}},
  "data": [
    {"smiles": "COc1cc2c(cc1O)CCN[C@]21CS[C@@H]2c3c(OC(C)=O)c(C)c4c(c3[C@@H](COC1=O)N1[C@@H]2[C@H]2c3c(cc(C)c(OC)c3O)C[C@@H]([C@@H]1O)N2C)OCO4", "values": [
      {"measurement": "IC50", "setting": "M059J", "result": 0.041, "unit": "nM"},
      {"measurement": "IC50", "setting": "[1]", "result": 0.0002, "unit": "µM"}
    ]},
    {"smiles": "COC(=O)[C@H]1[C@H]2C[C@@H]3c4[nH]c5cc(OC)ccc5c4CCN3C[C@H]2C[C@@H](OC(=O)c2cc(OC)c(OC)c(OC)c2)[C@@H]1OC", "note": "[RESERPINE]", "values": [
      {"measurement": "IC50", "setting": "[2]", "result": 2, "unit": "µM"},
      {"measurement": "IC50", "setting": "9L", "result": 1, "unit": "µM"},
      {"measurement": "IC50", "setting": "ADR5000 cell line", "result": 13.2, "unit": "µM"},
      {"measurement": "IC50", "setting": "CCRF-CEM", "result": 14.5, "unit": "µM"},
      {"measurement": "IC50", "setting": "[3]", "result": 9.15, "unit": "µM"},
      {"measurement": "IC50", "setting": "[4]", "result": 88, "unit": "µM"},
      {"measurement": "Activity", "setting": "C6", "result": 143, "unit": "%"},
      {"measurement": "Activity", "setting": "[5]", "result": 142, "unit": "%"}
    ]},
    {"smiles": "COc1ccc2c3c(c4cc(OC)c(OC)cc4c2c1)C[C@H]1CCCN1C3", "note": "[(-)-ANTOFINE]", "values": [
      {"measurement": "inhibition in vivo at 5 mg/kg", "setting": "CAKI-1", "result": 59, "unit": "%"},
      {"measurement": "IC50", "setting": "U-251 [6]", "result": 0.211, "unit": "µM"}
    ]},
    {"smiles": "O=C1c2ccccc2-[n+]2ccc3c([nH]c4ccccc43)c21", "note": "[FASCAPLYSIN]", "values": [
      {"measurement": "Activity", "setting": "U-87 MG [7]", "result": 54.92, "unit": "%"}
    ]},
    {"smiles": "COc1ccc2c3c(c4cc(OC)c(OC)cc4c2c1)CN1CCC[C@H]1C3", "values": [
      {"measurement": "IC50", "setting": "U-251 [8]", "result": 3.34, "unit": "µM"},
      {"measurement": "EC50", "setting": "U-87 MG [9]", "result": 29, "unit": "µM"},
      {"measurement": "EC50", "setting": "T98G", "result": 40, "unit": "µM"}
    ]},
    {"smiles": "OCc1ccc(-c2nccc3c2[nH]c2ccccc23)o1", "note": "[PERLOLYRIN]", "values": [
      {"measurement": "IC50", "setting": "SH-SY5Y", "result": 23.9, "unit": "µM"}
    ]},
    {"smiles": "c1ccc2c(c1)[nH]c1c2cc[n+]2cc3c(cc12)CCCC3", "values": [
      {"measurement": "IC50", "setting": "U-251 [10]", "result": 4.98, "unit": "µM"},
      {"measurement": "IC50", "setting": "U-87 MG [11]", "result": 4.71, "unit": "µM"},
      {"measurement": "inhibition in vivo at 4 mg/kg", "setting": "U-251 [12]", "result": 49.5, "unit": "%"},
      {"measurement": "inhibition in vivo at 8 mg/kg", "setting": "U-251 [13]", "result": 58.9, "unit": "%"}
    ]},
    {"smiles": "C=C[C@H]1CN2CCc3c([nH]c4c([C@@H]5CCCN5C)c(O)ccc34)[C@@H]2C[C@@H]1C[C@H]1c2[nH]c3ccccc3c2CCN1C", "values": [
      {"measurement": "IC50", "setting": "[14]", "result": "~1", "unit": "µM"},
      {"measurement": "Activity", "setting": "[15]", "result": 80, "unit": "%"}
    ]}
  ]
}
